How the values were obtained:
[1] = Half life in Sprague-Dawley rat at 3 mg/kg, po; type: ADME, organism-based; design: dose 3 mg/kg, route oral; details: in vivo
[2] = molecular target: T1, Adrenergic receptor alpha-1 (Rattus norvegicus) (UniProt P15823+P23944+P43140); assay: Displacement of [3H]prazosin from Adrenergic alpha-1 receptor in rat cerebral cortex cells at 1 uM; type: cell-based
[3] = molecular target: T2, Alpha-2A adrenergic receptor (Rattus norvegicus) (UniProt P22909); assay: Displacement of [3H]RX 821002 from Adrenergic alpha-2a receptor in rat cerebral cortex cells at 1 uM; type: cell-based
T2 sequence (whole entry): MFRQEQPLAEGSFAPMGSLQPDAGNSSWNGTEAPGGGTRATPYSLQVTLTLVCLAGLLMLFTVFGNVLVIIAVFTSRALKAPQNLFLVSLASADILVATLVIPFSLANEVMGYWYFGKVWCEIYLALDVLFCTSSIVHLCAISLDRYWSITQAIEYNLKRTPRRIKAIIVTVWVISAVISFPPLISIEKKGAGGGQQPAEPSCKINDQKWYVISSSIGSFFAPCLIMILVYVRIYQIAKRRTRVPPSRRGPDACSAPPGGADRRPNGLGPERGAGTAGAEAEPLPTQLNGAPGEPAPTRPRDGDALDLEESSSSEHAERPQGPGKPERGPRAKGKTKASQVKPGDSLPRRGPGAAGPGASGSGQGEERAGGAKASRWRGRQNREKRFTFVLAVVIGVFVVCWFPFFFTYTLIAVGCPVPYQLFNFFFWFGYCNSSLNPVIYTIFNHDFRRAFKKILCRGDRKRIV

[4] = molecular target: T3, 5-hydroxytryptamine receptor 1A (Homo sapiens, UniProt P08908); assay: Displacement of [3H]8-OH-DPAT from human 5HT1A receptor in HEK293 cells
T3 sequence (P08908 whole entry): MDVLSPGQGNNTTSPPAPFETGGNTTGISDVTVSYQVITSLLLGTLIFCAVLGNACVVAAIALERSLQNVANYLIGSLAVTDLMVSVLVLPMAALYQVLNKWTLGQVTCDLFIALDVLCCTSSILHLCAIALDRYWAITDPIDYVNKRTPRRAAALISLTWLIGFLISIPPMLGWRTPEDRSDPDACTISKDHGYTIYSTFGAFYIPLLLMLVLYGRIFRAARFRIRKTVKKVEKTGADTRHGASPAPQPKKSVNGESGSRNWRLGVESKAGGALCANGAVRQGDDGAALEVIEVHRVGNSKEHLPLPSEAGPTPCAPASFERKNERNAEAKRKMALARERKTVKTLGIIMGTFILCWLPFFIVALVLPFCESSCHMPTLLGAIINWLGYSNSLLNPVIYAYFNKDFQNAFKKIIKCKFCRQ

[5] = molecular target: T3, 5-hydroxytryptamine receptor 1A; assay: Activity against 5HT1A receptor by Gi-[35S]GTP-gamma-S binding assay; type: functional
[6] = molecular target: Voltage-gated inwardly rectifying potassium channel KCNH2 (Homo sapiens, UniProt Q12809); assay: Inhibition of hERG potassium channel in HEK293 cells by patch clamp assay
[7] = molecular target: T1, Adrenergic receptor alpha-1 (Rattus norvegicus); assay: Displacement of [3H]prazosin from Adrenergic alpha-1 receptor in rat cerebral cortex cells at 1 uM
[8] = Half life in human liver microsome at 5 uM; type: ADME; details: liver microsomes
hERG (KCNH2) = hERG (KCNH2) (Homo sapiens, UniProt Q12809); assay: Inhibition of hERG potassium channel in HEK293 cells by patch clamp assay at 1 uM; details: HEK293 cells that express hERG
[9] = molecular target: T4, Adrenergic receptor alpha-1 (Rattus norvegicus, UniProt P15823+P23944+P43140); assay: Displacement of [3H]prazosin from adrenergic alpha-1 receptor in rat cerebral cortex cells; type: cell-based
T4 sequence (P15823 whole entry): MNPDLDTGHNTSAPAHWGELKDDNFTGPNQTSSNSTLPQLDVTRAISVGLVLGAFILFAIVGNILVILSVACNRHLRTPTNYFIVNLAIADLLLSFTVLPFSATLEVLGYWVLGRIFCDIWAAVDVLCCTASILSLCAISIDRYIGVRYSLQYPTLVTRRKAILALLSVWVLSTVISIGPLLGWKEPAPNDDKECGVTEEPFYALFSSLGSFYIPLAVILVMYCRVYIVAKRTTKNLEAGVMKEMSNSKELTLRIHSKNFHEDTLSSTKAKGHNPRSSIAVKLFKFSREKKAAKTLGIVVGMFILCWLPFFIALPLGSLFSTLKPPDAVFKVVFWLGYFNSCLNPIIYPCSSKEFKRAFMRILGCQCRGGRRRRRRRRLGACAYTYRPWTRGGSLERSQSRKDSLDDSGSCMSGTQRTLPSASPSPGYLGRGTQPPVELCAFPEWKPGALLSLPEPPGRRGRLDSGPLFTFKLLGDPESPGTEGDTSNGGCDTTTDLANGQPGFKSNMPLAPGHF
T4 sequence (P23944 whole entry): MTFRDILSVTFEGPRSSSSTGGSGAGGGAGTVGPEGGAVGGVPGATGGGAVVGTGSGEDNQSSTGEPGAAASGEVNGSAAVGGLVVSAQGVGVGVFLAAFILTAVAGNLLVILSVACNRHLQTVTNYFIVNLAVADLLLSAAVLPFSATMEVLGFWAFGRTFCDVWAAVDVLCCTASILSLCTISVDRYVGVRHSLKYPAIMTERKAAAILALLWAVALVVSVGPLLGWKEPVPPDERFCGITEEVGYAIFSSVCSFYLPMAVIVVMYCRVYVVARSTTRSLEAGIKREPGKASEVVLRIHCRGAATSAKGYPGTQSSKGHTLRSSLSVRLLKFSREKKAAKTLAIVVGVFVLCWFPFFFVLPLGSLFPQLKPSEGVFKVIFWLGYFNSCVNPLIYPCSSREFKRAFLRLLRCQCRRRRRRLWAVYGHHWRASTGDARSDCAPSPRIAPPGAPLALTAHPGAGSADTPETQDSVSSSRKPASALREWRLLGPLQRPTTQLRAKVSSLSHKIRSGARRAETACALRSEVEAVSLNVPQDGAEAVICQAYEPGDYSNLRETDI
T4 sequence (P43140 whole entry): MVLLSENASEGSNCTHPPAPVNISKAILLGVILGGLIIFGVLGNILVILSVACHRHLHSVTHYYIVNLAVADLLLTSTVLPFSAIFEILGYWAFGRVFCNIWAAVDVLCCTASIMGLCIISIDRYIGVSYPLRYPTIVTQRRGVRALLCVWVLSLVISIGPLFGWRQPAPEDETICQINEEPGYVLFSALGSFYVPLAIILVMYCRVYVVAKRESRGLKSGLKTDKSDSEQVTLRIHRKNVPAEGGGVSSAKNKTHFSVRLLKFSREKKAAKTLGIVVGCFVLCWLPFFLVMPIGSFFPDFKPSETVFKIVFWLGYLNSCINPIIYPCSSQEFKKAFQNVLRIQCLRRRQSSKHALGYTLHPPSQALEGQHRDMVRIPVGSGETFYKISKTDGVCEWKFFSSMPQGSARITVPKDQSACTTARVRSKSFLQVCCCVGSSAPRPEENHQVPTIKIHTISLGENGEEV

[10] = Oral bioavailability in Sprague-Dawley rat at 3 mg/kg, po and 1 mg/kg, iv; type: ADME, organism-based; details: in vivo
[11] = Toxicity in po dosed Sprague-Dawley rat; type: organism-based; details: in vivo
[12] = Cmax in Sprague-Dawley rat at 3 mg/kg, po; type: ADME, organism-based; design: dose 3 mg/kg, route oral; details: in vivo
[13] = Cmax in Beagle dog at 3 mg/kg, po; type: ADME, organism-based, Canis lupus familiaris; design: dose 3 mg/kg, route oral; details: in vivo
[14] = Elimination half life in human; type: ADME, organism-based; details: in vivo
[15] = molecular target: T5, 5-hydroxytryptamine receptor 1A (Homo sapiens) (UniProt P08908); assay: Activity against 5HT1A receptor relative to 5-HT by Gi-[35S]GTP-gamma-S binding assay; type: functional
T5 sequence (whole entry): T3 sequence (P08908 whole entry)

[16] = Half life in Beagle dog at 3 mg/kg, po; type: ADME, organism-based, Canis lupus familiaris; design: dose 3 mg/kg, route oral; details: in vivo
[17] = Toxicity in po dosed Beagle dog; type: organism-based, Canis lupus familiaris; details: in vivo
[18] = Half life in human liver S9 fraction at 5 uM; type: ADME
D(2) dopamine receptor = D(2) dopamine receptor (Homo sapiens, UniProt P14416); assay: Binding affinity to D2 receptor by radioligand binding assay
[19] = Selectivity for adrenergic alpha-1 receptor over 5HT1A receptor

Sequence of hERG (KCNH2) (Q12809 whole entry): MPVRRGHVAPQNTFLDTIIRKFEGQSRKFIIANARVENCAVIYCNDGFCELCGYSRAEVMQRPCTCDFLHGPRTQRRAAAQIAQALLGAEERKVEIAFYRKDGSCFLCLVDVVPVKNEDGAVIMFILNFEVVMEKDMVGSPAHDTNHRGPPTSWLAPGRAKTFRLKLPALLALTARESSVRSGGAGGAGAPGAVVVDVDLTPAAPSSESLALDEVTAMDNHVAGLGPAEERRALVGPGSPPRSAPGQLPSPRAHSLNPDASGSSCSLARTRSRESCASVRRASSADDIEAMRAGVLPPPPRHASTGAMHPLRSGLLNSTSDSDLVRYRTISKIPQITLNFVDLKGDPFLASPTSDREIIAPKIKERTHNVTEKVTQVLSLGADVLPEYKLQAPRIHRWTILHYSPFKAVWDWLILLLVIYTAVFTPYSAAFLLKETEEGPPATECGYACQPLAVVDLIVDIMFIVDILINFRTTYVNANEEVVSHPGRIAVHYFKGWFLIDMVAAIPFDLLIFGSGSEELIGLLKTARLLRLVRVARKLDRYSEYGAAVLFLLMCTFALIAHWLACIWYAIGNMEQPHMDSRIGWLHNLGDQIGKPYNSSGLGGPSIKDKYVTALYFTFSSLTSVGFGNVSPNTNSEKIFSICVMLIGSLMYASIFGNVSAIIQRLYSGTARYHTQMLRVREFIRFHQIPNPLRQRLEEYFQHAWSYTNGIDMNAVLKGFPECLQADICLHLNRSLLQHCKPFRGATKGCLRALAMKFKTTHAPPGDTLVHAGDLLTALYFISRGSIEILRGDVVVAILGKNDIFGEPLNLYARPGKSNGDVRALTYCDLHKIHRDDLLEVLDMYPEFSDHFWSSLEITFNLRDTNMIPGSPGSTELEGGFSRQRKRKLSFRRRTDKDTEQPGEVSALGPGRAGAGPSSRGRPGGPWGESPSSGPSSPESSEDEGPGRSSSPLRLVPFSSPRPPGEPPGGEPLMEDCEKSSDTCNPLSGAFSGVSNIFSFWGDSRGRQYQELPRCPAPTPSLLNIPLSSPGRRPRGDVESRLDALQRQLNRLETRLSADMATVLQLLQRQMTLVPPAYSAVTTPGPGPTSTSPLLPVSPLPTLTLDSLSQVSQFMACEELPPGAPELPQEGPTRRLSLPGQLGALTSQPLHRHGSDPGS
Sequence of Voltage-gated inwardly rectifying potassium channel KCNH2 (Q12809 whole entry): as above
Sequence of D(2) dopamine receptor (P14416 whole entry): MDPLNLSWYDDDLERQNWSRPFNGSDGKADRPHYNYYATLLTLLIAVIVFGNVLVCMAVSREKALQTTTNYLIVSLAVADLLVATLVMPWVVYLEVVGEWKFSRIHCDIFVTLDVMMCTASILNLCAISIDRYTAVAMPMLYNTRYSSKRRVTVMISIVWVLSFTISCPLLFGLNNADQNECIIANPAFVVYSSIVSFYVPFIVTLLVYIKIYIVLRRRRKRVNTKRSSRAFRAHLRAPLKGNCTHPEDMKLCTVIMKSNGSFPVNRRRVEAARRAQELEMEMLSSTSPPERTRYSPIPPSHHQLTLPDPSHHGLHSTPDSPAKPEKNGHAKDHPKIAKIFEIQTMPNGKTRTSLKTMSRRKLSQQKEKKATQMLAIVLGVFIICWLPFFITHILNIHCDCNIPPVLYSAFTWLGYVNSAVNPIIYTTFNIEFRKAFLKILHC

SMILES	Activity [2] [%]	Activity [3] [%]	also measured
CC(=O)Nc1cccc(N2CCN(CC3CCN(S(=O)(=O)CC4CCCCC4)CC3)CC2)c1	< 10	13	half-life [1]: 0.75 h
CCC(=O)Nc1cccc(N2CCN(CCCCNS(=O)(=O)c3ccc(C)cc3)CC2)c1	0	31	Ki [4]: 426 nM
CC(=O)Nc1cccc(N2CCN(CCCCN(C)S(=O)(=O)CC(C)C)CC2)c1	27	16	EC50 [5]: 32 nM; IC50 [6]: 2200 nM; Activity [7]: 27%; half-life at 5 µM [8]: > 0.75 h; Ki [4]: 9.7 nM; inhibition at 1 µM (hERG (KCNH2)): 31%
Cc1ccc(S(=O)(=O)NCCCCN2CCN(c3cccc(NC(=O)C(C)C)c3)CC2)cc1	15	< 10	Ki [4]: 78 nM
CC(=O)Nc1cccc(N2CCN(CCCCNS(=O)(=O)c3ccc(C)cc3)CC2)c1	22	43	half-life [1]: 3.3 h; Ki [9]: > 3500 nM; half-life at 5 µM [8]: 0.65 h; bioavailability [10]: 15%
O=C1CC2(CCCC2)CC(=O)N1CCCCN1CCN(c2ncccn2)CC1 [BUSPIRONE]	–	–	half-life [1]: 1 h; LD50 [11]: 196 mg/kg; Cmax [12]: 4 ng/mL; Cmax [13]: 146 ng/mL; half-life [14]: 2 h; Activity [15]: 50%; half-life [16]: 1 h; LD50 [17]: 586 mg/kg
Cc1ccc(S(=O)(=O)NCCCCN2CCN(c3cccc(NC(=O)C(C)(C)C)c3)CC2)cc1	0	11	–
CCCC(=O)Nc1cccc(N2CCN(CCCCNS(=O)(=O)c3ccc(C)cc3)CC2)c1	12	12	–
Cc1ccc(S(=O)(=O)NCCCCN2CCN(c3ccccc3)CC2)cc1	98	90	–
CC(=O)Nc1cccc(N2CCN(CCCCN(C)S(=O)(=O)CC3CCCCC3)CC2)c1	37	47	EC50 [5]: 3.6 nM; half-life at 5 µM [18]: 1.08 h; Activity [7]: 37%; half-life at 5 µM [8]: 0.2 h
Cc1ccc(S(=O)(=O)NCCCCN2CCN(c3cccc(NS(C)(=O)=O)c3)CC2)cc1	51	21	–
Cc1ccc(S(=O)(=O)NCCCCN2CCN(c3cccc(NS(=O)(=O)C(C)C)c3)CC2)cc1	47	12	Ki [4]: 47 nM
CC1(C)CC(=O)N(CCCCN2CCN(c3ncccn3)CC2)C(=O)C1 [GEPIRONE]	–	–	Ki (D(2) dopamine receptor): 58 nM; half-life [14]: 6 h; Activity [15]: 80%
CC(=O)Nc1cccc(N2CCN(CCCCNS(=O)(=O)C(C)C)CC2)c1	< 10	< 10	–
CCS(=O)(=O)Nc1cccc(N2CCN(CCCCNS(=O)(=O)c3ccc(C)cc3)CC2)c1	47	14	–
CC(=O)Nc1cccc(N2CCN(CCCCNS(=O)(=O)C3CCCCC3)CC2)c1	< 10	< 10	–
CC(=O)Nc1cccc(N2CCN(CC3CCN(S(=O)(=O)c4ccc(F)cc4)CC3)CC2)c1	49	< 10	–
Cc1ccc(S(=O)(=O)NCCCCN2CCN(c3cccc(NC(=O)C4CC4)c3)CC2)cc1	< 10	10	Ki [4]: 22 nM
CC(=O)Nc1cccc(N2CCN(CC3CCN(S(=O)(=O)C(C)C)CC3)CC2)c1	< 10	< 10	–
O=C1CCC(=O)N1C[C@H]1CC[C@H]2CN(c3ncccn3)CCN2C1 [SUNEPITRON]	–	–	Ki [9]: 35 nM; Ratio Ki [19]: 0.4; half-life [14]: 2 h; Ki [4]: 92 nM
CC(=O)Nc1cccc(N2CCN(CCCCNS(=O)(=O)c3ccc(F)cc3)CC2)c1	39	< 10	–
O=C(Nc1cccc(N2CCN(CCCCNS(=O)(=O)CC3CCCCC3)CC2)c1)C1CC1	10	< 10	–
